Tests used:
CYP3A4 = CYP3A4 (Homo sapiens, UniProt P08684); conditions: cited from earlier work
FMO3 = biological target: T1, FMO3 (Homo sapiens, UniProt P31513); assay: Oxidation of cabozantinib by recombinant FMO3; format: in vitro ADME; conditions: human recombinant enzyme, data not shown
T1 construct: purchased Gentest Corp., Woburn, MA, USA; host or cells: insect cells (baculovirus)
T1 sequence (P31513 1-532): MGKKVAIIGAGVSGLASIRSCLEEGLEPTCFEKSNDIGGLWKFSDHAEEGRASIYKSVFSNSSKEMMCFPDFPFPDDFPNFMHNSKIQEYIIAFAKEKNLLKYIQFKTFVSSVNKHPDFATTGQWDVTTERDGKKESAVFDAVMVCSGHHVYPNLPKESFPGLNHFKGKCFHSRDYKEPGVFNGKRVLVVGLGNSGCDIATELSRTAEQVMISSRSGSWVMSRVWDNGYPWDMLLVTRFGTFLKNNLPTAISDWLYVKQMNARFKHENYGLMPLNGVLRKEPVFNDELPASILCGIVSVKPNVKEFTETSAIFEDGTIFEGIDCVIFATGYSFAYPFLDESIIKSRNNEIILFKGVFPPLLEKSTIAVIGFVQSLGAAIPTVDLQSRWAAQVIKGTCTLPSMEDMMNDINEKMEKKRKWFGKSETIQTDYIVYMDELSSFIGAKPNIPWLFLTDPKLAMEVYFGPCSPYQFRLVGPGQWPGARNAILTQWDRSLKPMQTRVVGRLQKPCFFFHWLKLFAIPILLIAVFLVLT

CYP3A4 + cyt b5 = biological target: T2, CYP3A4 + cyt b5 (Homo sapiens, UniProt P08684); assay: Cabozantinib oxidation by recombinant CYP3A4 in the presence of cyt b5 (Supersomes); format: in vitro ADME; conditions: Supersomes with cyt b5 vs without, 50 µM cabozantinib
T2 construct: purchased Corning (Corning, NY, USA); host or cells: insect cells (baculovirus)
Source text: Cabozantinib was from MedChemExpress (Monmouth Junction, NJ, USA). Standard of cabozantinib N-oxide was purchased from Toronto Research Chemicals (Toronto, Canada). Ketoconazole, NADPH and other chemicals were all purchased from Merck (Darnstadt, Germany). The purity of all chemicals met the standards of American Chemical Society, unless otherwise noted. Male human hepatic microsomes (pooled sample) (sample LOT: 3043885) were from Gentest Corp. (Woburn, MA, USA). Microsomes from livers of twelve human donors were obtained from Gentest Corp. (Woburn, MA, USA) (Lot. no. HG43-1, HG103, HG74, HG93, HG24, HG27, HG23, HG32, HK31, HK34, HG03 and HG42). Each human microsomal sample was characterized for CYP, FMO, total protein contents and specific CYP activities by Gentest Corp. and reanalyzed by us by assays described in the protocols of Gentest Corp. Our data were similar to those reported by Gentest Corp. (Table 1). Human recombinant enzymes were used in the forms of Supersomes™ and obtained from Corning (Corning, NY, USA). In Supersomes™, microsomal fractions were isolated from insect cells that were transfected with baculovirus constructs containing cDNA of human CYP enzymes (CYP1A1/2, 1B1, 2A6, 2B6, 2C8/9/18/19/, 2D6, 2E1, 3A4). The Supersomes™ also express NADPH:CYP oxidoreductase (POR). However, because they are microsomes (particles of broken endoplasmic reticulum), other enzymes (proteins) of the endoplasmic reticulum membrane (like NADH:cytochrome b5 reductase and cytochrome b5) are also expressed at basal levels in these Supersomes™. We also utilized Supersomes™, which overexpressed cytochrome b5, in a molar ratio of CYP to cytochrome b5 of 1 to 5. In Supersomes™, where cytochrome b5 was not overexpressed (see above), pure cytochrome b5 was added to reach a molar ratio of CYP to cytochrome b5 of 1 to 5. Reconstitution of Supersomes™ with purified cytochrome b5 was performed as described previously. Human recombinant FMOs and AO were also used in the forms of Supersomes™ (Gentest Corp., Woburn, MA, USA). These microsomal fractions were isolated from insect cells that are transfected with baculovirus constructs containing cDNA of human FMO1, FMO3, FMO5 or AO enzymes.
The reaction was initiated by adding NADPH. In control incubations, either microsomes or CYP (FMO, AO) or NADPH were omitted. […] The reaction was stopped by extraction with ethyl acetate (2 × 1 mL). […] Cabozantinib metabolites separated by HPLC were characterized by mass spectroscopy (see further details below).

RET = conditions: estimated; cited from earlier work
FMO1 = biological target: T3, FMO1 (Homo sapiens, UniProt Q01740); assay: Oxidation of cabozantinib by recombinant FMO1; format: in vitro ADME; conditions: human recombinant enzyme, data not shown
T3 construct: purchased Gentest Corp., Woburn, MA, USA; host or cells: insect cells (baculovirus)
T3 sequence (Q01740 1-532): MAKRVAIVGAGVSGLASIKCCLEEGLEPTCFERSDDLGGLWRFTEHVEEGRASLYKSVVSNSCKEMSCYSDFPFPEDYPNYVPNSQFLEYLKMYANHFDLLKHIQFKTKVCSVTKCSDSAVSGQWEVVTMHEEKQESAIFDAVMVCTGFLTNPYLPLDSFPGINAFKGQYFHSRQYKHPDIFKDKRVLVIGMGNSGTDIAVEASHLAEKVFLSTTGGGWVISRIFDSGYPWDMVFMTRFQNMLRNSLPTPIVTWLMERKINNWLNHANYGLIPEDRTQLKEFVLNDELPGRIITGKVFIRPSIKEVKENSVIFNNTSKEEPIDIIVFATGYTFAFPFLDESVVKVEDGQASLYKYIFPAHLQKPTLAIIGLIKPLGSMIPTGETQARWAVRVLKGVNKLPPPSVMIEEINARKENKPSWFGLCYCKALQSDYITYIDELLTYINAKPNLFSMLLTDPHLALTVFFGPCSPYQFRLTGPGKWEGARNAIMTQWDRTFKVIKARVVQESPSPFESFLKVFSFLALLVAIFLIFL
Source text: The purity of all chemicals met the standards of American Chemical Society, unless otherwise noted. […] Microsomes from livers of twelve human donors were obtained from Gentest Corp. (Woburn, MA, USA) (Lot. no. HG43-1, HG103, HG74, HG93, HG24, HG27, HG23, HG32, HK31, HK34, HG03 and HG42). […] Human recombinant enzymes were used in the forms of Supersomes™ and obtained from Corning (Corning, NY, USA). In Supersomes™, microsomal fractions were isolated from insect cells that were transfected with baculovirus constructs containing cDNA of human CYP enzymes (CYP1A1/2, 1B1, 2A6, 2B6, 2C8/9/18/19/, 2D6, 2E1, 3A4). The Supersomes™ also express NADPH:CYP oxidoreductase (POR). However, because they are microsomes (particles of broken endoplasmic reticulum), other enzymes (proteins) of the endoplasmic reticulum membrane (like NADH:cytochrome b5 reductase and cytochrome b5) are also expressed at basal levels in these Supersomes™. We also utilized Supersomes™, which overexpressed cytochrome b5, in a molar ratio of CYP to cytochrome b5 of 1 to 5. In Supersomes™, where cytochrome b5 was not overexpressed (see above), pure cytochrome b5 was added to reach a molar ratio of CYP to cytochrome b5 of 1 to 5. Reconstitution of Supersomes™ with purified cytochrome b5 was performed as described previously. Human recombinant FMOs and AO were also used in the forms of Supersomes™ (Gentest Corp., Woburn, MA, USA).

CYP3A4, sequence (P08684 whole entry): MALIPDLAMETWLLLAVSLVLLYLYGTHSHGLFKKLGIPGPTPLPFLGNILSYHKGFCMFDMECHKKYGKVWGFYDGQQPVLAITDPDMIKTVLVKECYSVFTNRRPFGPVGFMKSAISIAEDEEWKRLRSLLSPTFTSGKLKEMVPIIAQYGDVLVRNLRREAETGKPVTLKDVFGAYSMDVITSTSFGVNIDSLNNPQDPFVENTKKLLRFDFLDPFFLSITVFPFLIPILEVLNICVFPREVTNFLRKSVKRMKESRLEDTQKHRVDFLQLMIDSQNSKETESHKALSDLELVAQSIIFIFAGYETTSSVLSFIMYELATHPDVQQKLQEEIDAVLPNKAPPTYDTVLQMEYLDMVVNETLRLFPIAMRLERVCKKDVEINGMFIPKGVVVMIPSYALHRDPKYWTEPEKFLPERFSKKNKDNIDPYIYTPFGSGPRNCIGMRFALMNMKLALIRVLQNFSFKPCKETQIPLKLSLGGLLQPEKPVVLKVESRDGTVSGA
T2 sequence (P08684 whole entry): as above

What does the source list for `COc1cc2nccc(Oc3ccc(NC(=O)C4(C(=O)Nc5ccc(F)cc5)CC4)cc3)c2cc1OC` [cabozantinib, N′1-{4-[(6,7-dimethoxyquinolin-4-yl)oxy]phenyl}-N1-(4-fluorophenyl)cyclopropane-1,1-dicarboxamide]?
Inhibition of CYP3A4-mediated testosterone 6β-hydroxylation (CYP3A4): did not inhibit; Oxidation of cabozantinib by FMO 3 (FMO3): ineffective; Increase of oxidation / metabolite formation by co-expression of cyt b5 with CYP3A4 (CYP3A4 + cyt b5): more than 2.9 fold; IC50 (RET): […]; Oxidation of cabozantinib by FMO 1 (FMO1): ineffective
